In ChEMBL document CHEMBL1201862, “PubChem BioAssay data set” (2004):
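In this assay, cells in 96-well plates receive the compound at five concentrations for 48 hours. Endpoints are linearly interpolated between the surrounding concentrations. At the GI50, growth is halved.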 Activity calls are given as the source filed them. No stated cut-off is given here; in the data, active = GI50 up to about 1.1 µM and inactive = higher.

What was measured:
Test in all cases: NCI tumour cell line growth inhibition, 48 h
786-0 = tested on: 786-0
A549 = tested on: A549
BT-549 = tested on: BT-549
CAKI-1 = tested on: CAKI-1
K562 = tested on: K562
KM12 = tested on: KM12
LOX IMVI = tested on: LOX IMVI
MDA-N = tested on: MDA-N
MOLT-4 = tested on: MOLT-4
Malme-3M = tested on: Malme-3M
NCI-H23 = tested on: NCI-H23
NCI-H522 = tested on: NCI-H522
NCI/ADR-RES = tested on: NCI/ADR-RES
OVCAR-3 = tested on: OVCAR-3
SF-539 = tested on: SF-539
T47D = tested on: T47D
TK-10 = tested on: TK-10
HL-60 = tested on: HL-60
M14 = tested on: M14

SMILES | GI50 (786-0) | GI50 (A549) | GI50 (BT-549) | GI50 (CAKI-1) | GI50 (K562) | GI50 (KM12) | GI50 (LOX IMVI) | GI50 (MDA-N) | GI50 (MOLT-4) | GI50 (Malme-3M) | GI50 (NCI-H23) | GI50 (NCI-H522) | GI50 (NCI/ADR-RES) | GI50 (OVCAR-3) | GI50 (SF-539) | GI50 (T47D) | GI50 (TK-10) | GI50 (HL-60) | GI50 (M14)
CO/C=C/C=C(\C#N)C(=O)OC | > 100 µM (inactive) | > 100 µM (inactive) | > 100 µM (inactive) | > 100 µM (inactive) | > 100 µM (inactive) | > 100 µM (inactive) | > 100 µM (inactive) | > 100 µM (inactive) | 16.9 µM (inactive) | > 100 µM (inactive) | > 100 µM (inactive) | > 100 µM (inactive) | > 100 µM (inactive) | > 100 µM (inactive) | > 100 µM (inactive) | > 100 µM (inactive) | > 100 µM (inactive) |  | 
CCOC(=O)NC(Nc1ccc(S(=O)(=O)Nc2ncccn2)cc1)(C(=O)OCC)C(F)(F)F (configuration not stated) | > 100 µM (inactive) | > 100 µM (inactive) | > 100 µM (inactive) | > 100 µM (inactive) | > 100 µM (inactive) | > 100 µM (inactive) | > 100 µM (inactive) | > 100 µM (inactive) | > 100 µM (inactive) | > 100 µM (inactive) | > 100 µM (inactive) | > 100 µM (inactive) | > 100 µM (inactive) | > 100 µM (inactive) | > 100 µM (inactive) | > 100 µM (inactive) |  | > 100 µM (inactive) | > 100 µM (inactive)
N#Cc1c(N)nc2[nH]nc(N)c2c1-c1ccccc1 | 16.8 µM (inactive) | 6.58 µM (inactive) | 7.43 µM (inactive) | 3.2 µM (inactive) | > 41.8 µM (inactive) | 6.4 µM (inactive) | 3.89 µM (inactive) | 6.04 µM (inactive) | 4.04 µM (inactive) | 4.73 µM (inactive) | 6.49 µM (inactive) | 3.72 µM (inactive) | 15 µM (inactive) | 3.72 µM (inactive) | 7.16 µM (inactive) | 0.452 µM (active) | 5.6 µM (inactive) | 11.2 µM (inactive) | 7.03 µM (inactive)
COc1cc(-c2cc(=O)c3c(OC)c(OC)c(OC)c(OC)c3o2)cc(OC)c1OC [HEPATAMETHOXYFLAVONE] | 58.9 µM (inactive) | 35.5 µM (inactive) | 48.6 µM (inactive) | 21.6 µM (inactive) | 63.4 µM (inactive) |  | 25.9 µM (inactive) | 42.7 µM (inactive) | 24.9 µM (inactive) | 39.6 µM (inactive) | 41.8 µM (inactive) | 19.1 µM (inactive) | 23.6 µM (inactive) | 25.5 µM (inactive) | > 100 µM (inactive) | 12.7 µM (inactive) | 44.4 µM (inactive) | 15 µM (inactive) | 45.7 µM (inactive)
